Laboratory results reported in patent publication US4505893A, “Purified plasminogen activator, process for its production and thrombolytic composition containing it” (Asahi Kasei Kogyo Kabushiki Kaisha, priority 1982, dated 1985).
Square brackets hold non-standard residues; d marks the D form. Peptide text beside a SMILES is read from it. * marks the point of attachment. Sta = CC(C)C[C@H](N)[C@@H](O)CC(=O)O; Isovaleryl = CC(C)CC(=O)*

How the values were obtained:
urokinase = urokinase (Homo sapiens, UniProt P00749); experiment: biochemical
[1] = biological target: T1, substance of this invention (plasminogen activator) (Homo sapiens, UniProt P00750); experiment: biochemical
T1 construct: endogenous in cells
T1 sequence (P00750 36-562): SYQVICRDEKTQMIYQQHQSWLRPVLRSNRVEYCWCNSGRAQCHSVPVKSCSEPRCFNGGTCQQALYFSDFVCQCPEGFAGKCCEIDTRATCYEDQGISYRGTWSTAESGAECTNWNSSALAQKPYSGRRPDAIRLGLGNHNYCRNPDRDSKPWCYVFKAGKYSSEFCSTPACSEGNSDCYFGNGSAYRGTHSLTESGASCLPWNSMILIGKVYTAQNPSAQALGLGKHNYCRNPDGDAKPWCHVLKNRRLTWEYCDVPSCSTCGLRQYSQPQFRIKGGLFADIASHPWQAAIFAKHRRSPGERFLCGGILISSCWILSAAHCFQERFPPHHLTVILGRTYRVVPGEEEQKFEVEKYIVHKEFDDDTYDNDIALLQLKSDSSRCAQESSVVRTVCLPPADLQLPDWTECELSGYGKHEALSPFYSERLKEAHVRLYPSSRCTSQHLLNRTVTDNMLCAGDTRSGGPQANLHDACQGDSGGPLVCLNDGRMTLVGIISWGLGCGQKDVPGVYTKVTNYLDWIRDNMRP

fibrin = experiment: Affinity to fibrin (incorporation into formed fibrin); format: binding; conditions: 500 U/ml (urokinase 500 IU/ml); plasminogen-free fibrinogen + thrombin, 1 hour at room temperature; extracted with 2M ammonium thiocyanate
[2] = Hydrolysis activity on various organic substrates; format: biochemical; conditions: 37° C. 15 minutes, 1 μM aminomethylcoumarin = 100%, substance 100 U/ml, urokinase 120 IU/ml
plasminogen = experiment: Enhancement of activity with fibrin (plasminogen activation, Boc-Val-Leu-Lys-MCA); format: biochemical; conditions: 5 U/ml (urokinase 5 IU/ml), 25° C. 1 hour, 10 μM aminomethylcoumarin = 100%

CC(C)C[C@H](NC(=O)[C@@H](NC(=O)N[C@@H](Cc1ccccc1)C(=O)O)[C@@H]1CCN=C(N)N1)C(=O)N[C@H](C=O)Cc1ccccc1 [Chymostatin]
IC50 (urokinase): > 160 µM
IC50 [1]: > 160 µM

CCOC(=O)c1ccc(OC(=O)CCCCCNC(=N)N)cc1 [FOY]
IC50 (urokinase): 0.146 µM
IC50 [1]: 12.8 µM

CC(=O)N[C@@H](CC(C)C)C(=O)N[C@@H](CC(C)C)C(=O)N[C@H](C=O)CCCNC(=N)N [Leupeptin]
IC50 (urokinase): 80.7 µM
IC50 [1]: 47.5 µM

CC(C)CC(=O)N[C@H](C(=O)N[C@H](C(=O)N[C@@H](CC(C)C)[C@@H](O)CC(=O)N[C@@H](C)C(=O)N[C@@H](CC(C)C)[C@@H](O)CC(=O)O)C(C)C)C(C)C [Pepstatin] (Isovaleryl-VV[Sta]A[Sta]-OH)
IC50 (urokinase): > 100 µM
IC50 [1]: > 100 µM

urokinase
proportion of the substance incorporated in the fibrin (fibrin): not incorporated in the fibrin at all
Hydrolysis Activity (%) ([2]; substrate Boc-Glu-Lys-Lys-MCA 0.1 mM): 2.82%
Hydrolysis Activity (%) ([2]; substrate Boc-Ileu-Glu-Gly-Arg-MCA 0.1 mM): 3.30%
Hydrolysis Activity (%) ([2]; substrate Boc-Phe-Ser-Arg-MCA 0.1 mM): 48.9%
Hydrolysis Activity (%) ([2]; substrate Glt-Gly-Arg-MCA 0.1 mM): 314%
Hydrolysis Activity (%) ([2]; substrate Pro-Phe-Arg-MCA 0.1 mM): 3.89%
Hydrolysis Activity (%) ([2]; substrate Z--Phe-Arg-MCA 0.1 mM): 2.15%
Hydrolysis Activity (%) (plasminogen; fibrinogen added): 5.9%
Hydrolysis Activity (%) (plasminogen; fibrinogen not added): 28%
